# US10945516B2, “Device mounted on mask pack, mask pack and kit comprising the same” (BIOSENSOR LABORATORIES INC., priority 2016, dated 2021)
# Tests used:
# [1] = type: in vitro ADME; conditions: pig, 30 min, 0.5 mM
# Description: In particular, first, frozen pig skin purchased from a slaughterhouse was left out at room temperature and thawed for 2 to 3 hours for preparation. Then, hair on the pig skin was removed, and the pig skin was stretched to have elasticity and fixed on a plate with pins. As an experimental group, the mask pack prepared according to an embodiment was applied to the pig skin for 30 minutes, and as a control group, a mask pack on which a RED battery was not mounted was applied to the pig skin for 30 minutes. 0.5 mM of Calcein (having a molecular weight of 622.55 g/mol, available from Sigma-Aldrich), which is a fluorescent agent, was used in a material-containing portion. Thereafter, the pig skin was prepared as samples and fixed for 24 hours by using a fixing solution of 4% paraformaldehyde (pH 7.4 at 4° C.). After the fixing, the samples were sufficiently washed with a PBS (pH 7.4) solution, and embedded with a Tissue-Tek O.C.T. compound (available from Sakura Finetek, USA) and rapidly cooled. The cooled samples were cut to a size of 7 um by using a cryomicrotome (Shandon Cryotome SME Cryostat, Shandon Scientific LTD, Cheshire, England). The cryomicrotomed tissue was washed with a PBS solution, mounted on a mounting solution, covered with a cover slip, and observed using a fluorescent microscope (Axio Observer Z1; Zeiss, Gottingen, Germany), and the results are shown in FIG. 11.
# [2] = Degree of absorption of vitamin C by mouse skin from patch (HPLC); type: in vitro ADME; conditions: 12.5 mg per patch, 6 hours, hairless mouse back skin
# Description: In particular, hairless mouse skin was used to measure a cumulative amount of vitamin C in skin of a mouse. As a control group, a preparation containing vitamin C in a general patch was used. As an experimental group, a preparation containing vitamin C in a patch using reverse electrodialysis was used. A cohesive hydrogel-type patch was prepared by using 3 w/v % Carbopol, and 0.5 mL of a vitamin C-containing cohesive hydrogel was loaded on the patch (an amount of vitamin C was 2.5 w/v %, and an amount of vitamin C loaded per patch was 12.5 mg). Back skin of a 5 week-old mouse (20 to 25 g) was taken, and the patch was mounted thereon. The patch was removed after being incubated for 6 hours, and the skin was carefully separated, quickly washed by using DDW and MeOH, and freeze-stored at −70° C. […] Amounts of vitamin C in the samples were measured by using high-performance liquid chromatography (HPLC) using a mixture of acetonitrile and 0.3 M of KH2PO4 (pH 4) at a ratio of 40:60 as a mobile phase, a Nucleosil NH2 (100 μm) column, a flow rate of 0.8 mL/min, an insertion volume of 20 μL, a UV wavelength of 264 nm, and a column temperature of 25° C., and the results are shown in FIG. 13.
amount of fluorescence that permeated into skin [1],amount permeated into skin [1],"increase of amount permeated into skin, reverse electrodialysis mask pack compared to passive diffusion [1]",locally remaining amounts of vitamin C of the epidermis layer and the dermis layer ([2]; control group general patch),increase of locally remaining amounts of vitamin C of the epidermis layer and the dermis layer relative to control group ([2]; reverse electrodialysis patch vs general patch),Structure (SMILES)
0.47 ng/cm^2,about 0.05 ng/cm^2,about 7 times,–,–,O=C(O)CN(CC(=O)O)Cc1cc2c(cc1O)Oc1cc(O)c(CN(CC(=O)O)CC(=O)O)cc1C21OC(=O)c2ccccc21 [Calcein]
–,–,–,small,about 3 times,O=C1O[C@H]([C@@H](O)CO)C(O)=C1O [vitamin C]
